In patent publication US12138240B2, “Treatment of cardiac dysfunction” (priority 2017, dated 2024):
“Also recorded” adds a separate entry of the source. Like-named read-outs stand apart in the source and are kept apart here.

Columns and labels:
male healthy subjects [1] = experiment: linear exposure-heart rate model (NONMEM); set-up: species or system human
Excerpt: (§1) Data analysis proceeded from data structure analysis in S-PLUS to linear/nonlinear mixed effects modeling in NONMEM to develop the exposure-QTc relationship for ANAVEX 2-73 and its active metabolite ANAVEX 19-144. The correction method used for QT interval was the Fridericia's correction. The bootstrap was used to determine the reliability/stability of the exposure-QTc models developed. This was necessary to determine if the modeling results obtained with data from the 17 subjects would be applicable to the population at large, given the sample size. Exposure-heart rate and exposure-change from baseline QTc, and exposure-placebo corrected QTc relationship models were developed for the elucidation of any exposure-QTc relationship.
Concentration-QTc modeling was performed with the software NONMEM v7.3 (Icon Development Solutions, Ellicott City, MD) and graphical analysis, diagnostics plots, and supporting analyses using S Plus v8.2 (TIBCO Software, Boston, MA) and the R package.
Further modeling characterizes the exposure-heart rate relationship. […] for the model were ANAVEX 2-73 and ANAVEX 19-144 concentrations, and time. The baseline heart rate was also estimated. The best model developed to explain the exposure-heart rate relationship included all three variables. Again, ANAVEX 2-73 concentration by itself was not initially biologically QT active, but became active as metabolized to A19-144 in the model. At about 4 to 8 hours post administration A19-144 peaks and surpasses A2-73 at about 8 hours post administration. […] The metabolism of A2-73 to A19-144 modifies this effect. […] It is important to note the upward and negative inflexions in the parent compound and the active metabolite in the final model, respectively, are not indicative of model misspecification but are due to the sensitivity of smoothing loess regression (red line in FIG. 17) to outlying observations in the y-axis. The final model is given below: HRij=56.5−0.106*Parent+0.369*Metabolite+0.153*Time where HRij is subject specific heart rate, Parent refers to ANAVEX 2-73, and Metabolite is for ANAVEX 19-144.
Observed and unlikely to be observed concentrations of the parent drug and metabolite are used to predict heart rate, given the parameter estimates obtained with the exposure-heart rate model developed. […] Thus, the heart rate upon treatment with ANAVEX 2-73 is predicted to be below 75 beats/min.

[2] = phase I single ascending dose study, plasma concentrations of ANAVEX 2-73 and metabolite ANAVEX 19-144; assay type: in vivo, human; settings: for plasma concentration of the labelled analyte: 1 mg ANAVEX 2-73 oral dose; for concentration at 24 h / Cmax: human, plasma; for concentration at 24 h: one subject, 40 mg ANAVEX 2-73 oral, 24 hr time point, read-out: plasma concentration of the labelled analyte; for Cmax: male
Protocol: (§2) Seventeen subjects contributed ECG data to the analysis dataset. The study was randomized single dose escalating phase I first-in-human study designed to investigate the safety and tolerability, and pharmacokinetics of ascending oral doses of ANAVEX 2-73 in male healthy subjects. It was double-blind and placebo-controlled within each dosage step—a two cohort study with alternating single dose escalation performed in male healthy subjects. Subjects were administered 10, 30, 40, 50, or 60 mg of ANAVEX 2-73 orally with a 4-week washout between doses. Sampling for drug and ECG was from predose to 48 hr. Note that Placebo-adjusted (delta-delta) change in QTcF is represented as ΔΔQTcF.
Blood samples for ANAVEX 2-73 and metabolite ANAVEX 19-144 plasma concentration determination were drawn on Day 1 at time zero, T0, (before drug administration), T+0.25 h (15 min), T+0.5 h (30 min), T+1 h, T+1.5 h, T+2 h, T+3 h, T+3.5 h, T+4 h, T+6 h, T+8 h and T+12 h, on Day 2 at T+24 h and T+36 h, and on Day 3 at T+48 h.
The PK variables employed in the analysis were the patient-, regimen- and time-specific observed plasma concentration of ANAVEX 2-73 and ANAVEX 19-144.
The dataset comprised observed ANAVEX 2-73 and ANAVEX 19-144 plasma concentrations that were direct matches in time with QT interval measurements. The analysis variable of interest was the QT interval duration corrected for RR interval duration according to Fridericia's formula (i.e., QTcF), HR, and change from baseline QT interval duration corrected for RR interval duration according to Fridericia's formula (ΔQTcF or dQTcF). Baseline is defined as the mean of any and all values immediately obtained prior to ANAVEX 2-73 administration.

male healthy subjects [3] = tested on: male healthy subjects; set-up: species or system human; settings: in vivo
Protocol: as §2
Subjects provided time-matched exposure-ECG data for analysis. For the exposure-QTc analysis, data obtained after the administration of doses greater than 1 mg were used. […] However, ECG data from the administration of the 1 mg dose were included in the categorical and outlier analysis.
as §1
In addition, categorical summaries of the ECG data were generated using the ICH E14 guidance-defined categories of QTc interval duration as well as change from baseline.
A protocol presented herein was a single ascending dose (SAD) phase I first-in-human study designed to investigate the safety and tolerability, and pharmacokinetics of ascending oral doses of ANAVEX 2-73 in male healthy subjects. The study was a randomized, double-blind, and placebo-controlled within each dosage step. It was a two cohort study with alternating single dose escalation performed in male healthy subjects. The subjects were divided into two cohorts of 8 subjects each—Cohort A (n=8), and Cohort B (n=8). However, 17 evaluable subjects were studied in a 8:9 ratio in cohorts A and B, respectively. The study comprised repeated treatment periods with at least 4 weeks of intermediary washout periods.
Per study protocol, triplicate 12-lead ECGs safety recordings were obtained at the following times: Day 1 at T0/pre-dose (3 baseline ECGs), T+0.25 h (15 min), T+0.5 h (30 min), T+1 h, T+2 h, T+4 h, T+8 h and T+12 h, on Day 2 at T+24 h, T+36 h, and on Day 3 at T+48 h. ECGs were recorded at each PK sampling time (i.e., 0.25, 0.5, 1, 2, 3, 4, 6, 8, 24, 36, and 48 hours after initiation of treatment). Thus, ECG recordings were time-matched with PK sampling.
ECG metrics evaluated included the heart rate (HR), the duration of QT interval, and the heart rate-corrected QT interval according to Fridericia's formula (QTcF). Change of QTcF from baseline (dQTcF), and placebo corrected QTcF (ΔΔQTcF) were generated from the data and used for the analysis.
Baseline ECG was defined as pre-dose baseline on each dosing occasion. Given the four weeks washout between dosing, the pre-dose baseline ECG was used as the baseline ECG for the particular dose/dosing occasion. A change from baseline variable for QTc interval (ΔQTcF) was calculated using pre-dose baseline.
ΔΔQTcF data was a single dose ascending study. As such not all subjects were administered placebo in each of the study periods. Only nine subjects were administered placebo in the course of the study. Consequently, it was not possible to make subject specific placebo correction. […]

| Compound | Slope on parent, exposure-heart rate model estimate (male healthy subjects [1]) | initial effects on heart rate (male healthy subjects [1]) | plasma concentration of the labelled analyte [2] | concentration at 24 h [2] | Cmax ([2]; oral, footnote a, read-out: ANAVEX 2-73 Concentration, observed Cmax from the QTc analysis dataset) | QT interval prolongation (male healthy subjects [3]) | effect on dQTcF (exposure-dQTcF characterization) (male healthy subjects [3]) | graphical relationship of paired concentrations with QTcF measurements (male healthy subjects [3]) | relationship with ΔΔQTcF (placebo-adjusted change in QTcF) (male healthy subjects [3]) | dQTcF (change in QTcF from baseline), any subject (male healthy subjects [3]; male, human) | Slope on metabolite, exposure-heart rate model estimate (male healthy subjects [1]) | plasma concentration of the labelled analyte ([2]; hydrochloride) | ANAVEX 19-144 Concentration, observed Cmax from the QTc analysis dataset ([2]; footnote a, after oral ANAVEX 2-73, hydrochloride) | Cmax ([2]; footnote a, after oral ANAVEX 2-73, read-out: ANAVEX 19-144 Concentration, observed Cmax from the QTc analysis dataset) | anti-arrhythmic activity (male healthy subjects [3]) |
| --- | --- | --- | --- | --- | --- | --- | --- | --- | --- | --- | --- | --- | --- | --- | --- |
| CN(C)CC1CCOC1(c1ccccc1)c1ccccc1.Cl (centres unmarked) [ANAVEX 2-73, 1-(2,2-diphenyltetrahydrofuran-3-yl)-N,N-dimethylmethanamine hydrochloride] | −0.106 beats/min/ng/mL | opposite initial effects on heart rate | not quantifiable at most of the sampling times beyond two to four hours after dosing | 2.23 ng/mL | 46.2 ng/mL | does not prolong QT interval | did not show any effect | minimal positive trend | no relationship | ≤ 30 ms | – | – | – | – | – |
| CNCC1CCOC1(c1ccccc1)c1ccccc1.Cl (centres unmarked) [ANAVEX 19-144, 1-(2,2-diphenyltetrahydrofuran-3-yl)-N-methylmethanamine hydrochloride] | – | opposite initial effects on heart rate | – | 3.33 ng/mL | – | – | did not show any effect | slight minimal upward trend from baseline followed by a slight negative trend | no relationship | – | 0.369 beats/min/ng/mL | below the limit of detection; also recorded: not quantifiable | 23.96 ^a ng/mL | 24 ng/mL | anti-arrhythmic |
